Assay [1] has as its system asymmetric di-methyl PABP1 in RKO cells. As to the kind of experiment: In Cell Western (ICW) for asymmetric di-methyl PABP1 and DNA content in RKO cells. Type of assay: cell-based. The note with it: In Cell Western. An excerpt: RKO adherent cells were purchased from ATCC (American Type Culture Collection), Manassas, Va., USA. DMEM/Glutamax medium, penicillin-streptomycin, heat inactivated fetal bovine serum, 0.05% trypsin and D-PBS were purchased from Life Technologies, Grand Island, N.Y., USA. Odyssey blocking buffer, 800CW goat anti-rabbit IgG (H+L) antibody, and Licor Odyssey infrared scanner were purchased from Licor Biosciences, Lincoln, Nebr., USA. Mono-methyl arginine antibody was purchased from Cell Signaling Technology, Danvers, Mass., USA. Methanol was purchased from VWR, Franklin, Mass., USA. 10% Tween 20 was purchased from KPL, Inc., Gaithersburg, Md., USA. […] was purchased from Biostatus Limited, Leicestershire, UK. RKO adherent cells were maintained in growth medium (DMEM/Glutamax medium supplemented with 10% v/v heat inactivated fetal bovine serum and 100 units/mL penicillin-streptomycin) and cultured at 37° C. under 5% CO2. Cell Treatment, in Cell Western (ICW) for Detection of Asymmetric Di-Methyl PABP1 and DNA Content. RKO cells were seeded in assay medium at a concentration of 30,000 cells per mL to a poly-D-lysine coated 384 well culture plate (BD Biosciences 356697) with 50 μL per well. Compound (100 nL) from a 96-well source plate was added directly to 384 well cell plate. Plates were incubated at 37° C., 5% CO2 for 48 hours. After two days of incubation, plates were brought to room temperature outside of the incubator for ten minutes and blotted on paper towels to remove cell media. Cells were fixed for 20 minutes at room temperature by adding 50 μl of 8% PFA followed by aspiration of supernatant with the Biotek EL406 plate washer. Cells were then permeabilized by addition of 50 μL of ice cold 100% methanol directly to each well and incubated for 30 min at room temperature. After 30 min, plates were transferred to a Biotek EL406 plate washer and washed 2 times with 100 μL per well of wash buffer (1×PBS). Next 60 μL per well of Odyssey blocking buffer (Odyssey Buffer with 0.1% Tween 20 (v/v)) were added to each plate and incubated 1 hour at room temperature. Blocking buffer was removed and 20 μL per well of primary antibody was added (asymmetric-methyl PABP1) diluted 1:400 in Odyssey buffer with 0.1% Tween 20 (v/v)) and plates were incubated overnight (16 hours) at 4° C. Plates were washed 5 times with 100 μL per well of wash buffer. Next 20 μL per well of secondary antibody was added (1:800 800CW goat anti-rabbit IgG (H+L) antibody, 1:2000 DRAQS in Odyssey buffer with 0.1% Tween 20 (v/v)) and incubated for 1 hour at room temperature. The plates were washed 5 times with 100 μL per well wash buffer then 2 times with 100 μL per well of water. Plates were allowed to dry at room temperature then imaged on the Licor Odyssey machine which measures integrated intensity at 700 nm and 800 nm wavelengths. Both 700 and 800 channels were scanned. Calculations: First, the ratio for each well was determined by: Each plate included fourteen control wells of DMSO only treatment (minimum inhibition) as well as fourteen control wells for maximum inhibition treated with 20 μM of a reference compound. The average of the ratio values for each control type was calculated and used to determine the percent activation for each test well in the plate. Reference compound was serially diluted three-fold in DMSO for a total of nine test concentrations, beginning at 20 μM. Percent inhibition was determined and IC50 curves were generated using triplicate wells per concentration of compound.

Assay [2] addresses T1, Human CARM1 (PRMT4) (Homo sapiens, UniProt Q86X55).
T1 construct: Flag-CARM1-His; made in house; host or cells: HEK 293F cells (BacMam baculovirus, pFastBacMam)
T1 sequence (Q86X55 2-585 isoform Q86X55-1): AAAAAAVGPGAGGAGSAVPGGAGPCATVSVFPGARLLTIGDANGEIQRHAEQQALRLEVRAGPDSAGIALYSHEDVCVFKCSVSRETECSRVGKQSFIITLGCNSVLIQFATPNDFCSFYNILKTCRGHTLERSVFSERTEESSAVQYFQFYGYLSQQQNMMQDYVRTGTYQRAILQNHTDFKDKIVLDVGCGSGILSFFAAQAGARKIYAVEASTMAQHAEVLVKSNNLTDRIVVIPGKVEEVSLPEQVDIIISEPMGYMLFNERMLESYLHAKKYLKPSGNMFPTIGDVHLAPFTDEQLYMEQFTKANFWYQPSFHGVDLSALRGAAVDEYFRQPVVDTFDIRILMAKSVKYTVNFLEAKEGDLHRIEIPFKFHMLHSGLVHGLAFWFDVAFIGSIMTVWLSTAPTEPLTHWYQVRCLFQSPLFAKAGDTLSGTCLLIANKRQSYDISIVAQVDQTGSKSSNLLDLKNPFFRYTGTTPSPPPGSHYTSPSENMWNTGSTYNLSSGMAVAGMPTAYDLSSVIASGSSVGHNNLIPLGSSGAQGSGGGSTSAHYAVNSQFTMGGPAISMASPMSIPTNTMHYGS
The assay can be described thus: CARM1 biochemical assay (3H-SAM Flashplate, peptide substrate). The settings on record: read-out: CARM1_ IC50. An excerpt: S-adenosylmethionine (SAM), S-adenosylhomocysteine (SAH), bicine, Tween20, dimethylsulfoxide (DMSO), bovine skin gelatin (BSG), sodium butyrate and Tris(2-carboxyethyl)phosphine hydrochloride solution (TCEP) were purchased from Sigma-Aldrich at the highest level of purity possible. ^3H-SAM was purchase from American Radiolabeled Chemicals with a specific activity of 80 Ci/mmol. 384-well streptavidin Flashplates were purchased from PerkinElmer.
Peptide representative of human histone H3 residues 16-30 was synthesized with an N-terminal linker-affinity tag motif and a C-terminal amide cap by 21st Century Biochemicals. The peptide was purified by high-performance liquid chromatography (HPLC) to greater than 95% purity and confirmed by liquid chromatography mass spectrometry (LC-MS). The sequence was Biot-Ahx-[…]-amide and contained a monomethylated arginine at position 26 (SEQ ID NO.: 14).
Human CARM1 (PRMT4) (NM_199141.1) transcript clone was amplified from an HEK 293 cDNA library, incorporating a flanking 5′ sequence encoding a FLAG tag ([…]) (SEQ ID NO.: 6) fused directly to Ala 2 of CARM1 and 3′ sequence encoding a hexa His sequence ([…]) (SEQ ID NO.: 15) fused directly to Ser 608. The gene sequence encoding isoform1 containing a deletion of amino acids 539-561 was amplified subsequently and subcloned into pFastBacMam (Viva Biotech).
Recombinant baculovirus were generated according to Bac-to-Bac kit instructions (Life Technologies). […] Infections were carried out at 37° C. for 48 hours, harvested by centrifugation, and stored at −80° C. for purification.
Column was washed with 500 mM NaCl in buffer A and Flag-CARM1-His was eluted with 200 ug/ml FLAG peptide in buffer A. Pooled fractions were dialyzed in 20 mM Tris, 150 mM NaCl, 5% glycerol and 1 mM DTT, pH 7.8. The purity of recovered protein was 94.
General Procedure for CARM1 Enzyme Assays on Peptide Substrates.
The assays were all performed in a buffer consisting of 20 mM Bicine (pH=7.6), 1 mM TCEP, 0.005% BSG, and 0.002% Tween 20, prepared on the day of use. Compounds in 100% DMSO (1 ul) were spotted into a polypropylene 384-well V-bottom plates (Greiner) using a Platemate Plus outfitted with a 384-channel head (Thermo Scientific). DMSO (1 ul) was added to Columns 11, 12, 23, 24, rows A-H for the maximum signal control and 1 ul of SAH, a known product and inhibitor of CARM1, was added to columns 11, 12, 23, 24, rows I-P for the minimum signal control. A cocktail (40 ul) containing the CARM1 enzyme was added by Multidrop Combi (Thermo-Fisher). The compounds were allowed to incubate with CARM1 for 30 min at room temperature, then a cocktail (10 ul) containing ^3H-SAM and peptide was added to initiate the reaction (final volume=51 ul). The final concentrations of the components were as follows: CARM1 was 0.25 nM, ^3H-SAM was 30 nM, peptide was 250 nM, SAH in the minimum signal control wells was 1 mM, and the DMSO concentration was 2%. The assays were stopped by the addition of non-radiolabeled SAM (10 ul) to a final concentration of 300 uM, which dilutes the ^3H-SAM to a level where its incorporation into the peptide substrate is no longer detectable. 50 ul of the reaction in the 384-well polypropylene plate was then transferred to a 384-well Flashplate and the biotinylated peptides were allowed to bind to the streptavidin surface for at least 1 hour before being washed once with 0.1% Tween20 in a Biotek ELx405 plate washer. The plates were then read in a PerkinElmer TopCount plate reader to measure the quantity of ^3H-labeled peptide bound to the Flashplate surface, measured as disintegrations per minute (dpm) or alternatively, referred to as counts per minute (cpm).
Where dpm=disintegrations per minute, cmpd=signal in assay well, and min and max are the respective minimum and maximum signal controls.
Where top and bottom are the normally allowed to float, but may be fixed at 100 or 0 respectively in a 3-parameter fit. […]

Assay [3] concerns the target T2, human PRMT1 (Homo sapiens, UniProt Q99873).
T2 construct: GST-tagged PRMT1; made in house; host or cells: High Five insect cells (baculovirus, pFastBacI)
The assay can be described thus: PRMT1 biochemical assay (3H-SAM Flashplate, peptide substrate). The settings on record: read-out: PRMT1_ IC50. An excerpt:
S-adenosylmethionine (SAM), S-adenosylhomocysteine (SAH), bicine, Tween20, dimethylsulfoxide (DMSO), bovine skin gelatin (BSG), and Tris(2-carboxyethyl)phosphine hydrochloride solution (TCEP) were purchased from Sigma-Aldrich at the highest level of purity possible. ^3H-SAM was purchase from American Radiolabeled Chemicals with a specific activity of 80 Ci/mmol. 384-well streptavidin Flashplates were purchased from PerkinElmer.
Peptide representative of human histone H4 residues 36-50 was synthesized with an N-terminal linker-affinity tag motif and a C-terminal amide cap by 21st Century Biochemicals. The peptide was purified by high-performance liquid chromatography (HPLC) to greater than 95% purity and confirmed by liquid chromatography mass spectrometry (LC-MS). The sequence was Biot-Ahx-[…]-amide (SEQ ID NO.: 1).
Full-length human PRMT1 isoform 1 (NM_001536.5) transcript clone was amplified from an HEK 293 cDNA library, incorporating flanking 5′ sequence encoding a FLAG tag ([…]) (SEQ ID NO.: 2) fused directly to Met 1 of PRMT1. The amplified gene was subcloned into pFastBacI (Life Technologies) modified to encode an N-terminal GST tag and a TEV cleavage sequence ([…] […] […] […] QGGNS)(SEQ ID NO.: 3) fused to Asp of the Flag tag of PRMT1.
Recombinant baculovirus were generated according to Bac-to-Bac kit instructions (Life Technologies). Protein over-expression was accomplished by infecting exponentially growing High Five insect cell culture at 1.5×10^6 cell/ml with 1:100 ratio of virus. Infections were carried out at 27° C. for 48 hours, harvested by centrifugation, and stored at −80° C. for purification.
GST-tagged PRMT1 was eluted with 50 mM Tris, 2 mM glutathione, pH 7.8, dialysed in buffer A and concentrated to 1 mg/mL. The purity of recovered protein was 73%. Reference: Wasilko, D. J. and S. E. Lee: “TIPS: titerless infected-cells preservation and scale-up” Bioprocess J., 5 (2006), pp. 29-32.
General Procedure for PRMT1 Enzyme Assays on Peptide Substrates.
The assays were all performed in a buffer consisting of 20 mM Bicine (pH=7.6), 1 mM TCEP, 0.005% BSG, and 0.002% Tween 20, prepared on the day of use. Compounds in 100% DMSO (1 ul) were spotted into a polypropylene 384-well V-bottom plates (Greiner) using a Platemate Plus outfitted with a 384-channel head (Thermo Scientific). DMSO (1 ul) was added to Columns 11, 12, 23, 24, rows A-H for the maximum signal control and 1 ul of SAH, a known product and inhibitor of PRMT1, was added to columns 11, 12, 23, 24, rows I-P for the minimum signal control. A cocktail (40 ul) containing the PRMT1 enzyme was added by Multidrop Combi (Thermo-Fisher). The compounds were allowed to incubate with PRMT1 for 30 min at room temperature, then a cocktail (10 ul) containing SAM and peptide was added to initiate the reaction (final volume=51 ul). The final concentrations of the components were as follows: PRMT1 was 0.5 nM, ^3H-SAM was 200 nM, non-radiolabeled SAM was 1.5 uM, peptide was 20 nM, SAH in the minimum signal control wells was 1 mM, and the DMSO concentration was 2%. The assays were stopped by the addition of non-radiolabeled SAM (10 ul) to a final concentration of 300 uM, which dilutes the ^3H-SAM to a level where its incorporation into the peptide substrate is no longer detectable. 50 ul of the reaction in the 384-well polypropylene plate was then transferred to a 384-well Flashplate and the biotinylated peptides were allowed to bind to the streptavidin surface for at least 1 hour before being washed once with 0.1% Tween20 in a Biotek ELx405 plate washer. The plates were then read in a PerkinElmer TopCount plate reader to measure the quantity of ^3H-labeled peptide bound to the Flashplate surface, measured as disintegrations per minute (dpm) or alternatively, referred to as counts per minute (cpm).
Where dpm=disintegrations per minute, cmpd=signal in assay well, and min and max are the respective minimum and maximum signal controls. […]

pIC50: −log10 of the molar value.

T2 sequence (Q99873 with tags, fused parts or gaps): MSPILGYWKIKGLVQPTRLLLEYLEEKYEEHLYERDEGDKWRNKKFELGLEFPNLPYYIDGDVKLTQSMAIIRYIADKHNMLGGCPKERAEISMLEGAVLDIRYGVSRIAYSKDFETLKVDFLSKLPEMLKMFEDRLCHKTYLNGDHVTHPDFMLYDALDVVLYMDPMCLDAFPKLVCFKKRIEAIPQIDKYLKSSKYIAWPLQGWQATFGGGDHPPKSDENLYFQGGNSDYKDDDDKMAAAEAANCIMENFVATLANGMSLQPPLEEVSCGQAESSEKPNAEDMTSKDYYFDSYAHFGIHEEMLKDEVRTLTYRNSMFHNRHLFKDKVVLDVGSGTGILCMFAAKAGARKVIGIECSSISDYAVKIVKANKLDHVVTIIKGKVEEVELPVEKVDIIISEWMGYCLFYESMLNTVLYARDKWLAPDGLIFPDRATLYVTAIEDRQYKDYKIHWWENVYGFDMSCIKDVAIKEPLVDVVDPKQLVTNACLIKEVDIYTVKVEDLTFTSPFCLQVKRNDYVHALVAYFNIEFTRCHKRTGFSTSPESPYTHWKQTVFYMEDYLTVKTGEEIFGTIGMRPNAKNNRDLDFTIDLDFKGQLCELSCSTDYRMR

For orientation: pIC50 means −log10 of the IC50, conventionally taken in molar units. In turn, `CNCCN(C)Cc1cccc(-c2cc(C(=O)NCc3cc(C)on3)c3cnn(C(C)C)c3n2)c1` [Compound 229] gave a pIC50 in assay [1] of 5.65.

In the case of `CC(C)n1ncc2c(C(=O)N(C)C3CCOCC3)cc(-c3cccc(CN(C)CCN)c3)nc21` [Compound 265], the pIC50 in assay [2] is 7.13; in assay [1] (Homo sapiens, RKO), 4.99.

As for `CCCc1cc(-c2cccc(CN(C)CCNC)c2)nc2c1cnn2C(C)C` [Compound 239], the pIC50 in assay [2] was 7.31; in assay [1] (Homo sapiens, RKO), 4.70.

Turning to `CNCCN(C)Cc1cccc(-c2cc(C(=O)NCc3nccs3)c3cnn(C(C)C)c3n2)c1` [Compound 207], the pIC50 is 7.69 in assay [2] and 5.79 in assay [1] (Homo sapiens, RKO).

In the case of `Cc1cc(C)c(CNC(=O)c2cncc(-c3cccc(CN(C)CCN)c3)c2)c(=O)[nH]1` [Compound 380], the pIC50 in assay [3] was 6.47.

In the case of `CNCCN(C)Cc1cccc(-c2cncc(C(=O)NCc3c(C)cc(C)[nH]c3=O)c2)c1` [Compound 375], the pIC50 in assay [3] is 7.00.

`CNCCN(C)Cc1cccc(-c2cc(C(=O)NCc3cc(C)on3)c3cnn(C(C)C)c3n2)c1` [Compound 186] gave a pIC50 in assay [1] (Homo sapiens, RKO) of 5.85.

These data come from patent US20170280720A1, “ARGININE […] INHIBITORS AND USES THEREOF” (EPIZYME, INC., priority 2014, published 2017).
